# Where “and” joins values, the source holds several entries; their conditions need not be identical. Equal entries are not always repeated. Where two headings read alike, the source gives them in different places.
# Experiments:
# T. cruzi amastigotes [1] = assay: T. cruzi image-based assay (48 hour, intracellular amastigotes in 3T3 host cells); format: cell-based, Trypanosoma cruzi; conditions: for Emax: 48 h; for IC50: intracellular amastigotes in 3T3 cells, retested from DMSO stocks (CF from solid sample, temporal experiments)
# Description: The assay was performed as previously described. […] One wash was undertaken by using a Multidrop plate dispenser and two washes with a Bravo liquid handling device (Agilent Technologies, USA). Five microlitres of compound were added to plates and incubated for 48 hours. Cells were then fixed and stained with Hoechst (Life Technologies, USA) and HCS CellMaskTM Green (Life Technologies, USA) and image acquisition was performed an OperaTM High Content Screening System (PerkinElmer, USA) at 20 times magnification. […] The maximum activity achievable (Emax) of compounds was determined by taking (or as close to, if concentrations in the Emax were limited) the percentage activity at the mid concentration within the plateau of activity in the concentration response curve (see Supplemental Fig. 1, example NFX). […] Final assay concentrations of compounds ranged from 4.03 μM to 4.03 × 10^-3 μM. […] This was only undertaken for the amastigote assay. Dilutions were prepared with a multichannel pipette ([…], Thermo Fisher Scientific, USA) in 384-well polypropylene plates (Corning, NY, USA). […] Compound IC50 values in the TcCYP51 in vitro assay were calculated in GraFit (Erithacus software) by non-linear slope analysis. All data are presented as mean ± standard deviation. The significance of % clearance of parasites at compound Emax concentrations was calculated in Prism 5.0, using an unpaired student's t-test.
# 3T3 host cells = assay: 3T3 host cell activity in the T. cruzi image-based assay; parameters: species or system mouse; conditions: for CC50: Mus musculus, NIH3T3, 48 hours, no activity up to top concentration, read-out: IC50 value against 3T3 cells used for SI; for SI to 3T3: ratio 3T3 host cell / parasite IC50, 48 hours
# Description: To calculate compound activity, 12.0 µM NFX was used as a positive control and 0.366% DMSO was used as a negative control. To determine the activity against the host cell, 30.0 µM of puromycin was used as a positive control. The percentage normalised activity was determined using the equation outlined in our previous publication[19] and the reproducibility of the assay was determined using the Z’-factor[20].
# The assay was performed as previously described. Briefly, 3T3 cells were seeded at a concentration of 1 × 10^3 cells in 50 µL per well into collagen I coated 384-well plates (PerkinElmer, USA). Following 24 hours incubation at 37 °C and 5% CO2, 10 µL of parasites were added to wells at a multiplicity of infection (MOI) of 5:1 (parasites: host cells) with a Multidrop™ dispenser (Thermo Fisher, USA). Following 24 hours incubation, wells were washed with PBS (containing Mg^2+ and Ca^2+) to remove uninfected parasites. One wash was undertaken by using a Multidrop plate dispenser and two washes with a Bravo liquid handling device (Agilent Technologies, USA). Five microlitres of compound were added to plates and incubated for 48 hours. Cells were then fixed and stained with Hoechst (Life Technologies, USA) and HCS CellMask™ Green (Life Technologies, USA) and image acquisition was performed an Opera™ High Content Screening System (PerkinElmer, USA) at 20 times magnification. The positive control was 12.0 µM NFX and the negative control was 0.366% DMSO.
# recombinant TcCYP51 = recombinant TcCYP51 (Trypanosoma cruzi, UniProt Q7Z1V1); format: biochemical
# recombinant TcCYP51, sequence (Q7Z1V1 whole entry): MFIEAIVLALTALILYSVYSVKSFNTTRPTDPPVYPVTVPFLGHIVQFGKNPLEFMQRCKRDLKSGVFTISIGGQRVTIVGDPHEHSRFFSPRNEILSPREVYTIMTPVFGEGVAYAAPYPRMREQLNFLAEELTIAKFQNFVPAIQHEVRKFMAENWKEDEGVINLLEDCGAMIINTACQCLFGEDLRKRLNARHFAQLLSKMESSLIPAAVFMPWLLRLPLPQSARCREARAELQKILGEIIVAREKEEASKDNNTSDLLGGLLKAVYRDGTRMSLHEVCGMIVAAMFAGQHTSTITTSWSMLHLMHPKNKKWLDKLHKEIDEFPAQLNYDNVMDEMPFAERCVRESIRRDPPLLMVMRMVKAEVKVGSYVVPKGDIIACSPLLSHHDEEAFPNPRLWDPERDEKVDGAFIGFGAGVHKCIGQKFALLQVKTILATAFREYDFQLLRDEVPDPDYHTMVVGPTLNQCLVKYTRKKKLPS
# Description: The activity of compounds against TcCYP51 was determined at the University of Dundee as outlined previously. This assay utilises the fluorogenic probe benzyloxymethyloxycyanocoumarin (BOMCC), activated by TcCYP51. […] Preliminarily testing of MMV001239 was performed using this assay, with 1 replicate concentration response curve generated to establish whether it was a putative TcCYP51 inhibitor.
# Compound IC50 values in the T. cruzi and HEK293 cell-based assays were determined using Prism 5.0 (GraphPad software), derived by a sigmoidal concentration response (variable slope) analysis. Compound IC50 values in the TcCYP51 in vitro assay were calculated in GraFit (Erithacus software) by non-linear slope analysis. All data are presented as mean ± standard deviation. The significance of % clearance of parasites at compound Emax concentrations was calculated in Prism 5.0, using an unpaired student’s t-test.
# T. cruzi amastigotes [2] = assay: 96 hour image-based assay; format: cell-based, Trypanosoma cruzi; conditions: for Emax: Trypanosoma cruzi
# Description: The assay format was the same as the 48 hour assay, although plates were incubated for 96 hours. […] Two extra wash steps were included to remove as many extracellular parasites as possible to reduce impact on determination of intracellular parasites. […] Two experimental replicates were undertaken.
# T. cruzi amastigotes [3] = assay: Wash-off assay to assess parasite survival following compound removal; format: cell-based; conditions: Trypanosoma cruzi, 48 hours incubation, additional 72 hours without compound, read-out: percentage activity at the Emax, wash-off assay
# Description: The T. cruzi assay 48 hour assay was performed. Following, plates were washed 5 times with PBS (containing Mg^2+ and Ca^2+) on a Bravo liquid handler to remove compound pressure. Plates were incubated for an additional 72 hours and wells were washed 5 times before fluorescent labels were added. Plates were imaged on an Opera confocal-based high-content system with 7 fields per well acquired, at 20 times magnification. […] Four experimental replicates were undertaken.
# T. cruzi amastigotes [4] = assay: 24 hour image-based assay; format: cell-based; conditions: Trypanosoma cruzi; for Emax: plateau/Emax concentrations, read-out: % activity at the Emax, 24 hours incubation; for IC50: n of 2, read-out: IC50 value, 24 hours incubation
# Description: Compounds were added to assay plates as described for the 48 hour assay, although incubation time was decreased to 24 hours. […] Two experimental replicates were performed.
# HEK293 cells = assay: HEK293 assay (resazurin); format: cell-based, human; conditions: 120 hours; HEK293 / epimastigote IC50; NA = SI cannot be determined, tested to 79.4 µM
# Description: […] […] Plates were incubated for 24 hours before the addition of compounds. […] The positive control was 32.5 μM puromycin and the negative control was 0.433% DMSO, slightly different to the T. cruzi assay due to the change in volume, whilst utilising the same stock control plate. […] […] […] This was only undertaken for the amastigote assay. Dilutions were prepared with a multichannel pipette ([…], Thermo Fisher Scientific, USA) in 384-well polypropylene plates (Corning, NY, USA).
# T. cruzi epimastigotes = assay: 120 hour T. cruzi epimastigote assay (PrestoBlue); format: cell-based; conditions: Trypanosoma cruzi
# Description: Additions were made with a Multidrop dispenser and compounds were added directly following parasite addition. Plates were incubated for 112 hours before the addition 10 µL of PrestoBlue® viability reagent (Thermo Fisher, USA). […] The positive control was NFX at a final concentration of 14.20 µM and 0.433% DMSO as a negative control.
# [5] = Trypanosoma cruzi, DMSO stocks (CF from solid sample), relative to nifurtimox control, read-out: % activity (Emax)
# [6] = Trypanosoma cruzi, NIH3T3, 48 h
# [7] = DMSO stocks (CF from solid sample), relative to nifurtimox control
# [8] = difference 96 hours minus 48 hours
SMILES,IC50 (T. cruzi epimastigotes) [nM],Emax (T. cruzi amastigotes [1]; [5]) [%],IC50 (T. cruzi amastigotes [1]; [6]) [nM],CC50 (3T3 host cells) [nM],SI to 3T3 (3T3 host cells),Emax (T. cruzi amastigotes [3]) [%],Emax (T. cruzi amastigotes [4]) [%],% activity (Emax) (T. cruzi amastigotes [1]; [7]) [%],SI to HEK293 cells (HEK293 cells),other results
"CCOc1ccc(NC(=O)N(Cc2ccc(C)cc2)Cc2cccnc2)cc1 [Compound 4, 3-(4-Ethoxyphenyl)-1-(4-methylbenzyl)-1-(3-pyridinylmethyl)urea]",,76 ± 1.41,1400 ± 79.9,> 18300,>13.1,,,,,
COc1ccc2sc(N(Cc3cccnc3)C(=O)c3ccc(C#N)cc3)nc2c1 [MMV001239],,,,,,,,,,"IC50 (recombinant TcCYP51; single concentration response curve, read-out: IC50 value against recombinant TcCYP51, preliminary): 46 nM; percentage activity at the Emax, 48 hours incubation (temporal experiments, Fig. 3) (T. cruzi amastigotes [1]; n of 4): 85 ± 6.4% and 84.8%"
"CC[C@@H]([C@H](C)O)n1ncn(-c2ccc(N3CCN(c4ccc(OC[C@@H]5CO[C@@](Cn6cncn6)(c6ccc(F)cc6F)C5)cc4)CC3)cc2)c1=O [POSA, posaconazole]",,70 ± 8.49,,1000,,94,< 50,,,"Emax (T. cruzi amastigotes [2]; 96 hours, n of 2, read-out: reduction in infected cells at the Emax, 96 hours exposure): 96.5%; Emax (T. cruzi amastigotes [2]; difference 96 hours minus 48 hours, read-out: increase in activity at the Emax from 48 to 96 hours incubation): 21.3%; Emax (T. cruzi amastigotes [1]; Trypanosoma cruzi, n of 4, read-out: percentage activity at the Emax, 48 hours incubation (temporal experiments, Fig. 3)): 75.3%"
CCOC(=O)C(=O)NCC(c1cccnc1)N1CCN(c2ccccc2)CC1 (centres unmarked) [Compound 2],,,,,>8.43,,,76.5 ± 3.54,,"IC50 (recombinant TcCYP51; BOMCC probe, read-out: IC50 value against recombinant TcCYP51): 562 ± 130 nM; IC50 (T. cruzi amastigotes [1]): 2170 ± 499 nM"
"Cc1ccc(CN(Cc2cccnc2)C(=O)Nc2ccc(Cl)c(Cl)c2)cc1 [Compound 5, 3-(3,4-Dichlorophenyl)-1-(4-methylbenzyl)-1-(3-pyridinylmethyl)urea]",,88 ± 9.9,1800 ± 3.54,> 18300,>10.0,,,,,IC50 (T. cruzi amastigotes [1]): 1820 ± 3.54 nM
"CC(=O)N1CCC(N(Cc2cccnc2)C(=O)Nc2ccc(Cl)cc2)CC1 [Compound 3, 1-(1-Acetyl-4-piperidinyl)-3-(4-chlorophenyl)-1-(3-pyridinylmethyl)urea]",,70.5 ± 0.707,1290 ± 368,> 18300,>14.2,,,,,
"CCc1ccc(NC(=O)N(Cc2cccnc2)Cc2ccccc2Cl)cc1 [Compound 1, 1-(2-Chlorobenzyl)-3-(4-ethylphenyl)-1-(3-pyridinylmethyl)urea]",,84.5 ± 6.36,3480 ± 622,> 18300,>5.26,,,,,

# The next lines start with results.
IC50 (T. cruzi epimastigotes) [nM],SMILES,Emax (T. cruzi amastigotes [1]; [5]) [%],IC50 (T. cruzi amastigotes [1]; [6]) [nM],CC50 (3T3 host cells) [nM],SI to 3T3 (3T3 host cells),Emax (T. cruzi amastigotes [3]) [%],Emax (T. cruzi amastigotes [4]) [%],% activity (Emax) (T. cruzi amastigotes [1]; [7]) [%],SI to HEK293 cells (HEK293 cells),other results
5780 ± 477,"O=C(Cn1ccnc1[N+](=O)[O-])NCc1ccccc1 [BZ, benznidazole]",100,3560 ± 2340,> 127000,>35.7,100,100,99.5 ± 2.12,>26.1,increase in activity at the Emax from 48 to 96 hours incubation (T. cruzi amastigotes [2]; [8]): no difference; IC50 (T. cruzi amastigotes [4]): 7560 ± 2370 nM
1110 ± 131,"CC1CS(=O)(=O)CCN1/N=C/c1ccc([N+](=O)[O-])o1 (centres unmarked) [NFX, nifurtimox]",100,709 ± 161,> 127000,>179,100,100,102 ± 1.41,>136,increase in activity at the Emax from 48 to 96 hours incubation (T. cruzi amastigotes [2]; [8]): no difference; IC50 (T. cruzi amastigotes [4]): 1200 ± 21.3 nM
566 ± 141,"COc1ccc(C[C@H](N)C(=O)N[C@H]2[C@@H](O)[C@H](n3cnc4c(N(C)C)ncnc43)O[C@@H]2CO)cc1 [PURO, puromycin]",,2010 ± 329,,1.36,,,,0.386,
